Experimental data reported in paper PMC5503546, “Synthesis, bioactivity, 3D-QSAR studies of novel dibenzofuran derivatives as PTP-MEG2 inhibitors” (Oncotarget, 2017).

Legend:
diet-induced obese mice = settings: ref [20]; cited from earlier work
Human recombinant CDC25 = assay: PTP activity assay (pNPP), CDC25; type: biochemical; settings: triplicate
From the text: (§1) Human recombinant PTP-MEG2, SHP2 and CDC25 were expressed in E. coli and purified by Ni-NTA affinity chromatography in our laboratory. The basic chemical reaction catalyzed by a phosphatase converts a phosphosubstrate into a dephosphorylated product and free phosphate which could be measured as a surrogate for phosphatase activity. pNPP(para-nitrophenyl phosphate) was used as phosphatase substrate which can be hydrolyzed by phosphatase to give para-nitrophenol. Subsequently, para-nitrophenol converts into para-nitrophenolate (pNP) with addition of sodium hydroxide stop solution. pNP is an intense yellow compound and could be measured at 405 nm using a spectrophotometer. To begin with, purified recombinant PTP-MEG2, SHP2 and CDC25 (0.05 μg) in 50 μL buffer with 50 mM citrate (pH 6.0), 0.1 M NaCl, 1 mM EDTA, and 1 mM dithiothreitol (DTT) and test compounds were added to each well of a 96-well plate. Blank was prepared by omitting enzyme and substituting an equivalent volume of buffer. After preincubation for 15 min at room temperature, 50 μL of reaction buffer with 2 mM pNPP was added and incubated at 37°C for 30 min. Then, the reaction was stopped by adding 10 μL 0.2 M sodium hydroxide and chilled on ice quickly. In addition, the amount of pNP was measured by detecting the absorption at 405 nm against blank. Finally, IC50 values were determined by analyzing the data using ORIGINPRO 8 software.

[1] = molecular target: T1, Human recombinant PTP-MEG2 (Homo sapiens, UniProt P43378); assay: PTP activity assay (pNPP), PTP-MEG2; type: biochemical; settings: triplicate, mean ± S.E.M.
T1 construct: made in house; host or cells: E. coli
T1 sequence (P43378 1-593): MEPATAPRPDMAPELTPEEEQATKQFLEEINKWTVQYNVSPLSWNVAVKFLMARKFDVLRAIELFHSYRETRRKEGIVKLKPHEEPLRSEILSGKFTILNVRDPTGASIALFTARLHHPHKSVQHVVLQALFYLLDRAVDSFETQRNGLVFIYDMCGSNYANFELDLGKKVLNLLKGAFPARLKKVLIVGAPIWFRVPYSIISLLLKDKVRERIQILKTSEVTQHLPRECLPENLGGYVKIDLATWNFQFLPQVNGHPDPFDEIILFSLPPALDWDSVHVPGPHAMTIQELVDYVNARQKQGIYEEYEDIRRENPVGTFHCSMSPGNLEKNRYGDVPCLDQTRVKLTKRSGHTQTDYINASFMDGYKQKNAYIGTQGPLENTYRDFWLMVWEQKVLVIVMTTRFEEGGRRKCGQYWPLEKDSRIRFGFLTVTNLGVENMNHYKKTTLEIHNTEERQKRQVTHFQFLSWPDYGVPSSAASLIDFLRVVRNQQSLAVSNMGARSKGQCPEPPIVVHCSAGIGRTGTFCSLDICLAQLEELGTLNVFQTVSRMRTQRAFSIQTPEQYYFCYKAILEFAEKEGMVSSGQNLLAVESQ
From the text: as §1

Human recombinant SHP2 = molecular target: T2, Human recombinant SHP2 (Homo sapiens, UniProt Q06124); assay: PTP activity assay (pNPP), SHP2; type: biochemical; settings: triplicate; read-out: SHP-2 IC50
T2 construct: made in house; host or cells: E. coli
T2 sequence (Q06124 1-593): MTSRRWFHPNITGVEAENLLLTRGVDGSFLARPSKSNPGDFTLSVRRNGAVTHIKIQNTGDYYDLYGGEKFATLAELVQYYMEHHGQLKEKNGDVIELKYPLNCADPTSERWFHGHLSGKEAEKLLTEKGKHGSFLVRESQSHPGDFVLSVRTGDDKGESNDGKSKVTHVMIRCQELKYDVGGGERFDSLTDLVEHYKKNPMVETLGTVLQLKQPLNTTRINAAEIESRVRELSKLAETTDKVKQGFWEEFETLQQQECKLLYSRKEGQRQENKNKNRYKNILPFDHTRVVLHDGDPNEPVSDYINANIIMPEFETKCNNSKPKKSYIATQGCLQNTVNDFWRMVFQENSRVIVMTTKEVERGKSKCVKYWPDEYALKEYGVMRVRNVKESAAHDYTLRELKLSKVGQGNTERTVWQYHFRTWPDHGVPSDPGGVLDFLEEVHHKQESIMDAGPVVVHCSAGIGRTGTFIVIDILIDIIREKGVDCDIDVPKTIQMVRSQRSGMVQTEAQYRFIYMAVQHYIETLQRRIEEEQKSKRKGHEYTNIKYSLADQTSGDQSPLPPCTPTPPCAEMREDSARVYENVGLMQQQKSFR
From the text: as §1

SMILES | effect on insulin signaling, insulin sensitivity and glucose homeostasis (diet-induced obese mice) | IC50 (Human recombinant CDC25) | IC50 [1] | IC50 (Human recombinant SHP2)
CCOC(=O)/C(=C/C#Cc1cc(C(C)C)c(F)cc1OC)CC(=O)O [compound7] | augment insulin signaling and enhance the insulin sensitivity and glucose homeostasis | – | – | –
COc1ccc(COc2cc(C(=O)OCC3CC3)cc3oc4cc(F)c(C(C)C)cc4c23)cc1 [Compound 11b, cyclopropylmethyl7-fluoro-8-isopropyl-1-((4-methoxybenzyl)oxy)dibenzo[b, d]furan-3-carboxylate] | – | > 50 µM | 1.06 ± 0.1 µM | > 50 µM
COc1ccc(COc2cc(C(=O)OCC3CCCCC3)cc3oc4cc(F)c(C(C)C)cc4c23)cc1 [Compound 11d, cyclohexylmethyl7-fluoro-8-isopropyl-1-((4-methoxybenzyl)oxy)dibenzo[b, d]furan-3-carboxylate] | – | > 50 µM | 0.83 ± 0.04 µM | > 50 µM
CCCCCCOc1cc(C(=O)OCC2CCCCC2)cc2oc3cc(F)c(C(C)C)cc3c12 [Compound 11c, cyclohexylmethyl7-fluoro-1-(hexyloxy)-8-isopropyldibenzo[b, d]furan-3-carboxylate] | – | > 50 µM | 3.16 ± 0.32 µM | > 50 µM
CCOC(=O)c1cc(OCC2CC2)c2c(c1)oc1cc(F)c(C(C)C)cc12 [Compound 10a, ethyl 1-(cyclopropylmethoxy)-7-fluoro-8-isopropyldibenzo[b, d]furan-3-carboxylate] | – | > 50 µM | 0.32 ± 0.02 µM | > 50 µM
CCOC(=O)c1cc(OCc2ccc(OC)cc2)c2c(c1)oc1cc(F)c(C(C)C)cc12 [Compound 10d, ethyl7-fluoro-8-isopropyl-1-((4-methoxybenzyl)oxy)dibenzo[b, d]furan-3-carboxylate] | – | > 50 µM | 3.39 ± 0.34 µM | > 50 µM
CC(C)c1cc2c(cc1F)oc1cc(C(=O)O)cc(OCC3CC3)c12 [Compound 11e, 1-(cyclopropylmethoxy)-7-fluoro-8-isopropyldibenzo[b, d]furan-3-carboxylic acid] | – | > 50 µM | 5.35 ± 0.43 µM | > 50 µM
CCCCCCOc1cc(C(=O)OCC)cc2oc3cc(F)c(C(C)C)cc3c12 [Compound 10b, ethyl 7-fluoro-1-(hexyloxy)-8-isopropyldibenzo[b, d]furan-3-carboxylate] | – | > 50 µM | 1.22 ± 0.11 µM | > 50 µM
CCOC(=O)c1cc(OCC2CCCCC2)c2c(c1)oc1cc(F)c(C(C)C)cc12 [Compound 10c, ethyl 1-(cyclohexylmethoxy)-7-fluoro-8-isopropyldibenzo[b, d]furan-3-carboxylate] | – | > 50 µM | 1.19 ± 0.08 µM | > 50 µM
CCCCCCOc1cc(C(=O)OCC2CC2)cc2oc3cc(F)c(C(C)C)cc3c12 [Compound 11a, cyclopropylmethyl7-fluoro-1-(hexyloxy)-8-isopropyldibenzo[b, d]furan-3-carboxylate] | – | > 50 µM | 2.41 ± 0.17 µM | > 50 µM
CCOC(=O)c1cc(OC(C)=O)c2c(c1)oc1cc(F)c(C(C)C)cc12 [Compound 8, ethyl 1-acetoxy-7-fluoro-8-isopropyldibenzo[b, d]furan-3-carboxylate] | – | > 50 µM | 3.7 ± 0.22 µM | > 50 µM
COC(=O)c1cc(O)c2c(c1)oc1cc(F)c(C(C)C)cc12 [Compound 9a, methyl 7-fluoro-1-hydroxy-8-isopropyldibenzo[b, d]furan-3-carboxylate] | – | > 50 µM | 5 ± 0.4 µM | > 50 µM
